Here are results for one molecule from patent US9446019B2, “Sparstolonin B based pharmaceutical agent for neuroblastoma treatment” (University of South Carolina, priority 2013, dated 2016).

Type in all cases: cell-based, human
Test [1] has as its system reactive oxygen species in neuroblastoma cells. Nature of the test: ROS generation, H2DCFDA staining, fluorescence microscopy. The following applies: SsnB 10 μM; SH-SY5Y and other neuroblastoma lines; p<0.05. Here is the method: The production of reactive oxygen species (ROS) in SsnB-treated neuroblastoma cells was detected by a cell-permeable fluorescence probe H2DCFDA (carboxy-2′,7′-dichlorodihydrofluorescein diacetate) according to the manufacturer's instructions (Invitrogen, Carlsbad, Calif.). Briefly, neuroblastoma cells were cultured in DMEM with 10% FBS in Lab-TekII chamber slides (Fisher Scientific, Pittsburg, Pa.) and treated with SsnB for 2 days (SH-SY5Y and IMR-32 cells), 3 days (NGP cell) or 4 days (SKNF-1 and SK-N-BE(2) cells). […] Cells were washed three times with HBSS, mounted with Vectashield mounting medium (Vector Laboratories), and immediately examined under Nikon-E600 fluorescence microscopy equipped with fluorescein isothiocyanate (FITC) filter. Oxidation of H2DCFDA probe occurs almost exclusively in the cytosol, and generates a fluorescence that is proportional to ROS generation in that cell. […] Cells were trypsinized, washed, and re-suspended in PBS and fluorescence intensity was monitored at excitation wavelength 485 nm and emission wavelength 530 nm with a spectramax spectrophotometer (Molecular Devices, Sunnyvale, Calif.).
To test whether SsnB-induced cell death resulted from increased level of ROS, H2DCFDA staining was performed. […] The carboxy-DCF positive cells were quantitated by imageJ software and plotted. […]

Test [2] has the same test system. As to the kind of experiment: ROS generation, H2DCFDA fluorometry assay. Here is the method: The production of reactive oxygen species (ROS) in SsnB-treated neuroblastoma cells was detected by a cell-permeable fluorescence probe H2DCFDA (carboxy-2′,7′-dichlorodihydrofluorescein diacetate) according to the manufacturer's instructions (Invitrogen, Carlsbad, Calif.). Briefly, neuroblastoma cells were cultured in DMEM with 10% FBS in Lab-TekII chamber slides (Fisher Scientific, Pittsburg, Pa.) and treated with SsnB for 2 days (SH-SY5Y and IMR-32 cells), 3 days (NGP cell) or 4 days (SKNF-1 and SK-N-BE(2) cells). After treatments, cells were washed with Hank's buffered salt solution (HBSS; Thermo Scientific, Waltham, Mass.) and incubated with 25 μM of carboxy-H2DCFDA dye for 30 min at 37° C. in dark. Nuclei were counterstained with DAPI. Cells were washed three times with HBSS, mounted with Vectashield mounting medium (Vector Laboratories), and immediately examined under Nikon-E600 fluorescence microscopy equipped with fluorescein isothiocyanate (FITC) filter. Oxidation of H2DCFDA probe occurs almost exclusively in the cytosol, and generates a fluorescence that is proportional to ROS generation in that cell. As a negative control, cells without H2DCFDA dye were used to detect autofluorescence. The fluorometric analysis to detect generation of ROS was performed. Briefly, after treatments with SsnB as mentioned above, cells were labeled with carboxy-H2DCFDA dye (25 μM) for 30 min at 37° C. Cells were trypsinized, washed, and re-suspended in PBS and fluorescence intensity was monitored at excitation wavelength 485 nm and emission wavelength 530 nm with a spectramax spectrophotometer (Molecular Devices, Sunnyvale, Calif.).
SsnB-induced generation of ROS was also evaluated by fluorometry assay. Neuroblastoma cells as treated above were incubated with H2DCFDA dye for 30 min and the fluorescence intensity was measured at 485 nm (excitation wavelength) and 530 nm (emission wavelength).

The test system of test [3] is SH-SY5Y and SK-N-BE(2) cells. Nature of the test: Hanging-drop assay for spheroid formation. The following applies: day 12. The method, then: 3-D in vitro hanging drop assay was carried out to detect the SsnB effect in neuroblastoma spheroid formation. Neuroblastoma cells were prepared as single cell suspension in complete culture medium (DMEM+10% FBS) without or with SsnB (1 and 10 μM). Twenty microliter drops of each prepared cell suspension containing 20,000 cells/drop were pipetted into the inner side of the lid of a 60 mm diameter tissue culture dish. The lid was gently inverted and placed on top of the culture dish filled with 5 ml of sterile 1×PBS to humidify the culture chamber. The drops were incubated under tissue culture conditions (at 37° C. and 5% CO2) allowing the cells to form aggregate at the base of the droplet. The cells in each droplet were photographed using Olympus SZX2 stereo microscope (Olympus America Inc., Center Valley, Pa.).
As SsnB inhibited the formation of neuroblastoma colony in anchorage-independent agarose gel assay, the ability of SsnB to inhibit the initiation of neuroblastoma tumors was tested in a hanging drop assay method. In the hanging drop assay the cells under the force of gravity and surface tension start accumulating at the bottom of the hanging drop and join together to form a spheroid. […]

In the case of `O=c1occ2c3c(ccc(O)c13)Oc1ccc(O)cc1-2` [SsnB, 8,5′-dihydroxy-4-phenyl-5,2′-oxidoisocoumarin], the “number of carboxy-DCF positive cells vs DMSO” value in test [1] is recorded as “significantly increased”. For the same molecule, the “H2DCFDA fluorescence intensity vs DMSO” value in test [2] (SsnB 1 μM, nonsignificant) is given as “almost similar”; in test [2] (SsnB 10 μM, p<0.05), “significantly increased”. The spheroid formation result is listed as “compact cell clusters were formed” in test [3] (SsnB 1 μM) and “unable to aggregate to form compact spheroids” in test [3] (SsnB 10 μM).
